Experimental data from US20250206754A1, “PAN-CHEMOKINE ANTAGONISTS FOR USE IN TREATING CANCER AND IMMUNE DISORDERS” ("Micar Innovation" LTD., priority 2022, published 2025).

Legend:
CCR7 [1] = target: T1, CCR7 (Homo sapiens, UniProt P32248); assay: TANGO β-arrestin antagonist assay, CCR7; assay type: cell-based
T1 construct: expressed in transfected cells
T1 sequence (P32248 25-378): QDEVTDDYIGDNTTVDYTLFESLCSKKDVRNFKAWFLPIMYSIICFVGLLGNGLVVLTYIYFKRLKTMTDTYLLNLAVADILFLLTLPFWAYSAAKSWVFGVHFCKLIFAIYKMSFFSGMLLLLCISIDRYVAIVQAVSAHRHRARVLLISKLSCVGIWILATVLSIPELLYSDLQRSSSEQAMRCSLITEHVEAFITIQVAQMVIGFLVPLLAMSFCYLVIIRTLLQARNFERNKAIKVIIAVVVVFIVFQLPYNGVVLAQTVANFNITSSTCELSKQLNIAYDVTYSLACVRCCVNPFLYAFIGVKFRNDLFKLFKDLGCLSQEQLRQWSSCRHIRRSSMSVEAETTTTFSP
Method: (§1) Selected compounds were initially sent for both antagonist and agonist TANGO β-arrestin assays. […] Replacement only on the amide group with CN led to strong activity decrease in β-arrestin assay: only 31% activity at about 30 μM and similar one at 100 μM (Table 1). Five more derivatives with replaced amide group were also tested in parallel by Ca^2+ mobilization assay and they all were not active up to the tested concertation of 100 μM.
In current CCR7-β-arrestin antagonistic assay a Hill coefficient of 15.1 was obtained, without any transformation of the data. Instead for CCR1, CCR2, CCR3 and CCR5 coefficients much closer to one were calculated, 2.3, 3.1, 2.6 and 1.9, respectively. Moreover, the increase of the activity for CCR3 and CCR5 were over 50-folds for concentrations where the activity raised. […] Further, the CCR7-β-arrestin antagonistic assay was repeated and retrieved almost identical results.

CCR7 [2] = target: T1, CCR7; assay: TANGO β-arrestin agonist assay, CCR7; assay type: cell-based
Method: as §1

CCR7 [3] = target: T1, CCR7; assay: Ca^2+ mobilization assay, CCR7; assay type: cell-based
Method: as §1
To examine the colloid aggregation possibility a β-lactamase enzymatic activity counterscreen assay was performed, which is the commonly adopted tool for detection of such properties of the compounds.

CCR1 = target: T2, CCR1 (Homo sapiens, UniProt P32246); assay: β-arrestin selectivity assay, CCR1; assay type: cell-based
T2 sequence (P32246 1-355): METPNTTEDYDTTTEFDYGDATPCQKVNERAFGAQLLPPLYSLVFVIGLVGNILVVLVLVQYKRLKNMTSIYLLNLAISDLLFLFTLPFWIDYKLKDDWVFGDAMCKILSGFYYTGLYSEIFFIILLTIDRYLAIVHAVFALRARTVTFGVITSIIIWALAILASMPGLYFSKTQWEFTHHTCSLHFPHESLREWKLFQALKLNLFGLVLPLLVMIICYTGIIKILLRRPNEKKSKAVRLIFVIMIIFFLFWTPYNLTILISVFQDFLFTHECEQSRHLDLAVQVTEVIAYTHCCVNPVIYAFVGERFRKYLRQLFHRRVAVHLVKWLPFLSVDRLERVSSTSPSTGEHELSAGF

CCR2 = CCR2 (Homo sapiens, UniProt P41597); assay: β-arrestin selectivity assay, CCR2; assay type: cell-based
CCR2, sequence (P41597 whole entry): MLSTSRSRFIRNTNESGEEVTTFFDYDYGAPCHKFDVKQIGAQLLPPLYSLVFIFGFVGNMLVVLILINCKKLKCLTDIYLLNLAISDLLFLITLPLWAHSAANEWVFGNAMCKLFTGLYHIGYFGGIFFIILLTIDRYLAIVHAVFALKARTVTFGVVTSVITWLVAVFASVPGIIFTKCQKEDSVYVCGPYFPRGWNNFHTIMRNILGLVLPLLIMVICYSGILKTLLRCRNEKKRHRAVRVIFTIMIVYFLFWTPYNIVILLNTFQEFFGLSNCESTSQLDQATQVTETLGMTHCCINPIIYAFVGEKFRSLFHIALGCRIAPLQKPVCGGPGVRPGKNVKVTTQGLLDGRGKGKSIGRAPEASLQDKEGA

CCR5 [4] = target: T3, CCR5 (Homo sapiens, UniProt P51681); assay: Ca^2+ mobilization assay, CCR5; assay type: cell-based
T3 sequence (P51681 whole entry): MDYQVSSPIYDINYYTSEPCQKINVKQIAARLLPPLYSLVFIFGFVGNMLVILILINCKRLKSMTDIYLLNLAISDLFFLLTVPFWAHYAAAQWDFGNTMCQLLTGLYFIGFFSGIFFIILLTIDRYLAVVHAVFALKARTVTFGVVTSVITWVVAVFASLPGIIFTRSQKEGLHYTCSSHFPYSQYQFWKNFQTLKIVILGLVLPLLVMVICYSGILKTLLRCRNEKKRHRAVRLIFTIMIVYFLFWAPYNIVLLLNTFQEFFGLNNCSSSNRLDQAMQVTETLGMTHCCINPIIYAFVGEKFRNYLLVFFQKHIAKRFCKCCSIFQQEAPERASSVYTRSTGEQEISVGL
Method: (§2) The Kb values are also retrieved. […] Finally, to make it more clear the second messenger output for Hit1 and confirm the nature of β-arrestin bias GTPγS and ERK assays were also performed. […] Considering that the ERK is directly related to β-arrestin path and binds directly to the arrestin it was concluded that this compound is β-arrestin biased (Table 1 and FIGS. 3A and 3B). Finally, several other potential hits were identified but the activities were in a range of 25-35% at 100 μM concentration and they were discarded in this disclosure.

CCR5 [5] = target: T3, CCR5; assay: cAMP assay, CCR5; assay type: cell-based; conditions: CCR5 (data not shown)
Method: as §2

CCR7 [6] = target: T1, CCR7; assay: ERK assay, CCR7; assay type: cell-based
Method: as §2
Current diversity data provide also several additional experimental evidences which are against colloid aggregation activity dependence: • Almost identical steep dose-response curves have been observed for the natural CCL19 and CCL21 agonists. Thus, it seems that this is not unique to Hit 1 case. • Hill coefficient of 1.5 in the ERK experiments and no steep slope (FIG. 3A). Moreover, the ERK dose-response curve looks like a typical single antagonist ligand. • At the same conditions as in the ERK assay the compound was in particular not active in the GTPγS assay up to 100 μM (FIG. 3B). […]

[7] = tested on: primary human keratinocytes; assay: Cell viability in the keratinocyte inflammation models; assay type: cell-based; conditions: in the cytokine release models
IL17 release = assay: Inhibition of IL17 release (inflammation model); conditions: Homo sapiens, read-out: EC50, IL17 release
IL-8 release = conditions: Homo sapiens, read-out: EC50, IL8 release
Method: (§3) For this purpose a model for the inhibition of CCL2 release from IL-4, IL-13, IL-22 and IFNγ-stimulated primary human keratinocytes (Eczematous inflammation) was used and also an assay for the inhibition of IL-8 release from IL-17A and TNFα (Psoriatic inflammation). […] Finally, migration assay by MB231cell line was performed.

CCL2 release = conditions: Homo sapiens, Keratinocyte, read-out: EC50, CCL2 release
Method: as §3

NC(=O)c1ccccc1Oc1ncnc2sc(-c3ccccc3)cc12 [Hit 1, 2-({6-phenylthieno[2,3-d]pyrimidin-4-yl}oxy)benzamide] showed an inhibition at 100 µM (CCR7 [1]; 100 μM concentration, read-out: β-arrestin assay (100 μM), Percent of inhibition) of 110%, a Hill coefficient (CCR7 [1]; CCR7-β-arrestin antagonistic assay, without any transformation of the data) of 15.1 and an IC50 (CCR7 [1]; TANGO β-arrestin antagonist assay, CCR7, read-out: IC50, antagonistic activity) of 9.1 µM. For the same compound, the Hill slope (CCR7 [1]; same data transformed to log units, normalized, GraphPad 6) was 11.2, the IC50 (CCR7 [1]; same data transformed to log units, normalized, GraphPad 6, read-out: IC50) was 9.2 µM and the agonist activity (CCR7 [2]) was “no any agonist activity”. The inhibition at 100 µM (CCR7 [3]; 100 μM concentration, read-out: Ca^2+ assay (100 μM), Percent of inhibition) was 63%, the Kb (CCR7 [3]; CCR7) was 2.8 µM and the “Hill slope” value (CCR7 [3]; Ca^2+ mobilization assay, CCR7) was 2.6. For the same compound, the IC50 (CCR7 [3]; Ca^2+ mobilization assay, CCR7) was 92 µM, the “activity change with 0.01% Triton X-100” value (CCR7 [3]; Ca^2+ mobilization assay, CCR7 expressed cells, preliminary data) was “no activity change” and the IC50 (CCR7 [3]; similar Ca^2+ mobilization assay in an independent lab (data not shown)) was 25 to 30 µM. It also gave a Hill coefficient (CCR1) of 2.3, an IC50 (CCR1) of 13.6 µM and a Hill coefficient (CCR2) of 3.1. The IC50 (CCR2) was 2.6 µM, the Kb (CCR5 [4]) was 10.5 µM and the Hill-Slope (CCR5 [4]; Ca^2+ assay) was 1.2. The IC50 (CCR5 [4]; Ca^2+ mobilization assay) was 55 µM, the IC50 (CCR5 [5]) was 50 µM and the IC50 (CCR7 [6]; ERK assay) was 18.1 µM. The Hill coefficient (CCR7 [6]; ERK experiments) was 1.5, the cell viability [7] was “Some inhibition of the cell viability” and the EC50 (IL17 release) was 3.78 µM. For the same compound, the EC50 (IL-8 release) was 0.733 µM and the EC50 (CCL2 release) was 0.411 µM.
